Assays:
AR = target: T1, AR (Homo sapiens, UniProt P10275); conditions: previous studies of the inventors; cited from earlier work
T1 sequence (P10275 1-920): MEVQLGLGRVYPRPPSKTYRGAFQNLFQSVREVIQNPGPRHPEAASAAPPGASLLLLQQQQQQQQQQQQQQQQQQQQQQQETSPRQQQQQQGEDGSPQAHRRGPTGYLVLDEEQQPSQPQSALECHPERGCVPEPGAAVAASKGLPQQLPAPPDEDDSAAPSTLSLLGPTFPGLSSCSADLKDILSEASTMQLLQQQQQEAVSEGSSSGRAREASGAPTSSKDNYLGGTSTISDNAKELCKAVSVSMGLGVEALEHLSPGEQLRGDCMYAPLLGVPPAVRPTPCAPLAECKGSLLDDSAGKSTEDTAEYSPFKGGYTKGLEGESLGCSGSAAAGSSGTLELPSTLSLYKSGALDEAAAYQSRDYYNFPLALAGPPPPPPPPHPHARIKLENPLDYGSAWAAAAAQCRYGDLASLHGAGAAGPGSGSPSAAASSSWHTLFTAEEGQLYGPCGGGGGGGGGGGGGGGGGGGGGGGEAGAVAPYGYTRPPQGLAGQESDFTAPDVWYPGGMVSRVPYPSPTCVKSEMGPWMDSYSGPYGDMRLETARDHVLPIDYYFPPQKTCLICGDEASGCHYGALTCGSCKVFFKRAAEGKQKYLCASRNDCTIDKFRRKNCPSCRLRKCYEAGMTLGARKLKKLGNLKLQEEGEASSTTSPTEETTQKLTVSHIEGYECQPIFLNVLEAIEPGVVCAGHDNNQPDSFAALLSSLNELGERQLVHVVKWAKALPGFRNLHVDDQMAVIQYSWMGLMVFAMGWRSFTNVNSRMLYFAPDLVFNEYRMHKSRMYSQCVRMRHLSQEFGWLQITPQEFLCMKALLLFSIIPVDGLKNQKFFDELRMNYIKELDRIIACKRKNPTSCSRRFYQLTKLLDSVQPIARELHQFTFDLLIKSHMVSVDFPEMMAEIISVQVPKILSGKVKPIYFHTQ

PSA mRNA in LNCaP cells = test: PSA mRNA expression level in LNCaP cells (real-time PCR); format: cell-based, human; conditions: 10^−5M, 24 hours, control (DMSO) 1.0
Method: (§1) 1) Extraction of Total RNA
(§2) After respectively culturing the LNCaP cells and NIH-3T3-L1 cells co-transfected in 1) to 3) above in 6-well plates, the cells were cultured for 24 hours in EMEM or RPMI 1640 containing 10% fetal calf serum treated with dextran-charcoal and a test compound (dissolved in a small amount of DMSO). Subsequently, total RNA was respectively extracted using Isogen (Wako Pure Chemical Industries).
(§3) 5 μg aliquots of each total RNA obtained in 1) above were reverse-transcribed to first strand cDNA using a Superscript III Kit (Invitrogen) and brought to a final volume of 20 μL. Real-time PCR was carried out using LightCycler FastStart DNA Master SYBR Green I (Roche Diagnostic) in order to quantify expression of PSA mRNA in LNCaP cells and UCP-1 mRNA in NIH-3T3-L1 cells. PCR was carried out under the following conditions in 20 μL of reaction mixture: 50 cycles consisting of denaturing for 3 seconds at 95° C., annealing for 10 seconds at 60° C. and elongating for 25 seconds at 72° C. β-actin mRNA was also simultaneously amplified for use as an internal standard. Real-time PCR value for each transcription product were calculated as a relative ratio to β-actin.

[1] = tested on: UCP-1 mRNA in NIH-3T3-L1 cells; test: UCP-1 mRNA expression level in NIH-3T3-L1 cells (real-time PCR); format: cell-based, mouse; conditions: 10^−5M, 24 hours, control (DMSO) 1.0
Method: as §1, §2, §3

PSA promoter = test: PSA promoter-luciferase activity in LNCaP cells (dual-luciferase reporter); format: cell-based, human; conditions: 10^−5M, 24 hours, control (DMSO) 1.0
Method: Plasmid pCMV-hAR was constructed based on a method previously reported by the inventors of the present invention (J. Biol. Chem., 282, 7329-7338). In addition, reporter plasmids consisting of PGL3-PSA (human) and PGL3-UCP-1 (mouse) were also constructed based on a method previously reported by the inventors of the present invention (Diabetes, 54, 1000-1008). Furthermore, pRL-SV40 was acquired commercially.
NIH-3T30-L1 mouse preadipocytes were cultured in Dulbecco's modified Eagle's medium (Sera Laboratories) containing 10% fetal calf serum. In addition, cells of human prostate cancer cell line LNCap were cultured in RPMI 1640 medium (Sigma) containing 10% fetal calf serum. Furthermore, these two types of cell lines were obtained from the American Type Culture Collection (Manassas).
The NIH-3T3-L1 cells of 2) above were co-transfected with pCMV-hAR, pRL-SV40 and PGL3-UCP-1 (mouse) in a 24-well plate using an Effectene Transfection Kit (Qiagen) and a Fugene HD Kit (Roche Diagnostics). In addition, the LNCaP cells of 2) above were similarly co-transfected with pCMV-hAR, pRL-SV40 and PGL3-PSA (human).
4) Measurement of Effect on PSA Promoter-Luciferase Activity in LNCaP Cells
The LNCaP cells co-transfected in 3) above were cultured for 24 hours in DMEM or RPMI 1640 containing 10% fetal calf serum treated with dextran-charcoal and a test compound (dissolved in a small amount of DMSO) 24 hours after transfection. Subsequently, the activities of firefly luciferase and Renilla luciferase were assayed in a 24-well plate using the Dual-Luciferase Reporter Assay System (Promega) in accordance with the protocol of Minilumat LB9507 (Berthold Technologies). Furthermore, the value of firefly luciferase activity were normalized based on the internal Renilla control, and were presented as relative luciferase activity.

CC(C)(O)C(=O)Nc1ccc([N+](=O)[O-])c(C(F)(F)F)c1 [hydroxyflutamide]
Formation of subnuclear AR foci (dots) (in words) (AR): do not form foci (dots)

CO[C@H]1CC[C@@]2(C)C(=CCC3C4CCOC[C@@]4(C)CCC32)C1 (stereo partly drawn) [Compound of formula (IIIa), 16a-homo-16a-oxestra-5-ene-3β-methoxide]
PSA mRNA (relative ratio to β-actin mRNA) (PSA mRNA in LNCaP cells): 0.8 | UCP-1 mRNA (relative ratio to β-actin mRNA) [1]: 1.8 | Value of luciferase transcription activity (PSA promoter, relative luciferase activity) (PSA promoter): 0.8

CC(=O)O[C@H]1CC[C@]2(C)C3CC[C@]45C(=O)O[C@H](C)[C@H]4CCC5C3CC[C@H]2C1 (stereo partly shown) [Compound of formula (IIa)]
PSA mRNA (relative ratio to β-actin mRNA) (PSA mRNA in LNCaP cells): 0.9 | UCP-1 mRNA (relative ratio to β-actin mRNA) [1]: 1.4 | Value of luciferase transcription activity (PSA promoter, relative luciferase activity) (PSA promoter): 0.8

From patent publication US8623909B2, “Prophylactic/therapeutic agents for lifestyle-related diseases” (priority 2008, dated 2014)
